The text below walks through data of US4851450A, “Compounds for inhibition of platelet activating factor activity” (priority 1987, dated 1989).

Like-named read-outs stand apart in the source and are kept apart here.

Data set [1] concerns PAF aggregation of washed rabbit platelets. In words: Inhibition of PAF (AGEPC) activity / disaggregation during AGEPC-induced aggregation of washed rabbit platelets. Type of data set: cell-based. The settings on record: for IC50: Oryctolagus cuniculus, Platelet.
The subject of a further data set is rabbit platelets. In words: [3H]Serotonin secretion by platelets. It counts as cell-based. The settings on record: Oryctolagus cuniculus, Platelet; 2 min; final concentrations; read-out: 50% secretion of 3H-serotonin at 2 min. How it is done: The procedure is as follows: PAF and the various test lipid compounds are assessed for platelet stimulatory activity as briefly described. Rabbit platelets, internally labeled with [^3 H]serotonin (New England Nuclear; 28.2 Ci/mmol) are washed on Ficoll-Paque cushions and adjusted to 2.5×10^8 platelets/ml of Tyrode's buffer, pH 7.2. Appropriate dilutions of PAF or the test lipids are prepared in pyrogen-free 0.15M NaCl containing 2.5 mg/ml of crystallized bovine serum albumin; the albumin is required for dispersion of PAF and the test lipids. Four microliters of the various dilutions of PAF and test lipids are added to 200 μl of prewarmed (37° C.) [^3 H]serotonin-labeled platelets in plastic test tubes and the reaction mixture was incubated for 60 s at which time 20 μl of cold 1.5 m formaldehyde were added to stop the reactions. The tubes were immediately cooled to 0° C., centrifuged at 2200×g for 10 min and the supernatants were assayed for percentage of [^3 H]serotonin secretion relative to 100% controls prepared by the addition of Triton X-100 to 200 μl of the starting platelet suspension. The data were plotted linearly and 1 unit of activity was defined as the amount of PAF or test lipids required to effect 50% serotonin release. […]

The next data set has as its system washed rabbit platelets. Briefly: Aggregation of washed rabbit platelets (procedure of Demopoulos et al.). Conditions: for EC50: Oryctolagus cuniculus, Platelet, final concentrations; for cytotoxicity of the aggregation: washed rabbit platelets. Type of data set: cell-based.
The test system of a further data set is rats. Briefly: Systolic blood pressure in rats (procedure of Tselepis et al.). Type of data set: in vivo, rat. The text has this: Biochem. Physiol. 87C(1),41-46 (1987), the teachings of which are incorporated herein.
Data set [2] concerns Tetrahymena pyriformis cells. Briefly: Glycogenolysis in intact Tetrahymena pyriformis cells. It counts as cell-based. Conditions: glucose measured, FIG. 3. How it is done:
The results were obtained using the following procedure: Tetrahymena pyriformis cells, in log phase, are spun down, washed with saline and resuspended in Tyrodes solution. After 30 min of incubation, the compounds III and IV in bovine serum albumin solution are added and aliquots taken at different time intervals. The aliquots are treated for 2 min in boiled water, sonicated and glucose measured by the method of Bergmeyer et al. (Methods of Enzymatic Analysis, 3, 1196 (Academic Press, N.Y. 1974), the teachings of which are incorporated herein.

The mark [3] stands for this setting: Table, final molar concentration, for 2 × 10^-10 M AGEPC, read-out: IC50.
The mark [4] stands for this setting: against 2×10^-10 M PAF, final concentrations, read-out: IC50 for 2×10^-10 M PAF.

Turning to thrombin, the “effect on aggregation when added during AGEPC-induced aggregation” value in data set [1] (added during AGEPC (PAF)-induced aggregation, FIG. 4) was “no effect on platelet aggregation”.
A word on the IC50: it is the point on the concentration scale where inhibition reaches its midpoint. In the case of `CCCCCCCCC(O)C(O)CCCCCCCCOCC(O)CO` (stereo not shown) [Compound III, 9,10-Dihydroxy-Octadecyl Glycerol], the EC50 in the data set on rabbit platelets came to 2 µM; in the data set with washed rabbit platelets, 0.2 µM. The IC50 in data set [1] (setting [3]) and in data set [1] (setting [4]) was 16 µM in each case. For the same compound, the “cytotoxicity of the aggregation” value in the data set on washed rabbit platelets is on record as “non-cytotoxic”.
For “1-O-alkyl-2-acetyl-sn-glyceryl-3-phosphorylcholine [PAF]”, the “fall in systolic blood pressure (SBP)” value in the data set on rats was “fall in the systolic blood pressure”. Further, in data set [2], the glycogenolysis entry is recorded as “dramatic influence on glycogenolysis”.
On to `CCCCCCCCC(OC(C)=O)C(CCCCCCCCOCC(COC(C)=O)OC(C)=O)OC(C)=O` (stereo not shown) [Compound IV, Tetra-Acetyl-9,10-Dihydroxy-Octadecyl Glycerol], for which the values for the EC50 in the data set on rabbit platelets and in the data set on washed rabbit platelets were 9 µM and 2 µM, respectively. The IC50 in data set [1] (setting [3]) and in data set [1] (setting [4]) was 28 µM each time. In addition, in the data set on washed rabbit platelets, the “cytotoxicity of the aggregation” value was “non-cytotoxic”.
